These results are taken from patent US11524938B2, “Aromatic sulfonamide derivatives” (Bayer Pharma Aktiengesellschaft, priority 2016, dated 2022).

The target in this assay is T1, human P2X4 (Homo sapiens, UniProt Q99571).
T1 sequence (Q99571 1-388): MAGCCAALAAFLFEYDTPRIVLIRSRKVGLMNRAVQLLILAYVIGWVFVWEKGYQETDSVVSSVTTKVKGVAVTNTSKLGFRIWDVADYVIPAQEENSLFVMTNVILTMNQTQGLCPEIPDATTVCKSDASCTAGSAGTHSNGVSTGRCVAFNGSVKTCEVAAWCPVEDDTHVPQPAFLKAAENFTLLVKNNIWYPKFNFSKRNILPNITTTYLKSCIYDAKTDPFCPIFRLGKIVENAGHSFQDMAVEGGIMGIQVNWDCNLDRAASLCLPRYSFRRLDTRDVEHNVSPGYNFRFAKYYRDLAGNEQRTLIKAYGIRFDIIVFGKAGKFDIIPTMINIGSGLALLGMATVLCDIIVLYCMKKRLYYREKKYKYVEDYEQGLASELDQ
Kind of assay: Human P2X4 HEK Cell FLIPR Assay. Type of assay: cell-based. Conditions: agonist Bz-ATP at EC80; for Emax: HEK293, HEK293 cells, percentage of maximal inhibition, read-out: Human P2X4 HEK Cells (FLIPR Assay) avg Efficacy [%]; for IC50: HEK293 cells, individual values listed where some fall outside detection range. In a few lines:
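Calcium flux read by FLIPR for 120 sec after Bz-ATP challenge at EC80 (established each assay day), following 30 min room-temperature compound preincubation in dye-loaded stable human P2X4 HEK293 cells. Peak RFU over basal normalized to agonist control; IC50, maximal inhibition and Hill coefficient from triplicate means.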

As a reminder, the IC50 is the point on the concentration scale where inhibition reaches its midpoint. Low readings indicate greater potency in that assay, high ones weaker potency in that assay.

Where only a bound is given, the exact number is not on record here.

For the molecule `Cc1noc(C)c1-c1ccc(NC(=O)Cc2ccccc2Cl)cc1S(N)(=O)=O` [Example 275, 2-(2-Chlorophenyl)-N-[4-(3,5-dimethyl-1,2-oxazol-4-yl)-3-sulfamoylphenyl]acetamide], the Emax stood at 82% and the IC50 was 507 nM.
As for `CC1(Cn2cc(-c3ccc(NC(=O)Cc4ccccc4Cl)cc3S(N)(=O)=O)cn2)COC1` [Example 276, 2-(2-Chlorophenyl)-N-(4-{1-[(3-methyloxetan-3-yl)methyl]-1H-pyrazol-4-yl}-3-sulfamoylphenyl)acetamide], the Emax stood at 96% and the IC50 was 195 nM.
As for `COCCn1cc(-c2ccc(NC(=O)Cc3ccc(F)cc3Cl)cc2S(N)(=O)=O)cn1` [Example 277, 2-(2-Chloro-4-fluorophenyl)-N-{4-[1-(2-methoxyethyl)-1H-pyrazol-4-yl]-3-sulfamoyl-phenyl}acetamide], the Emax turned out to be 90% and the IC50 was determined as 186 nM.
For `NS(=O)(=O)c1cc(NC(=O)Cc2ccc(F)cc2Cl)ccc1-c1cnn(C2CC2)c1` [Example 278, 2-(2-Chloro-4-fluorophenyl)-N-[4-(1-cyclopropyl-1H-pyrazol-4-yl)-3-sulfamoyl-phenyl]acetamide], the Emax worked out at 102% and the IC50 amounted to 93 nM.
On to `NS(=O)(=O)c1cc(NC(=O)Cc2ccccc2Cl)ccc1-c1cnn(CCOC(F)(F)F)c1` [Example 279, 2-(2-Chlorophenyl)-N-(3-sulfamoyl-4-{1-[2-(trifluoromethoxy)ethyl]-1H-pyrazol-4-yl}phenyl)acetamide], for which the Emax came out at 96% and the IC50 was determined as 61 nM.
Taken in the same sequence, the figures for `NS(=O)(=O)c1cc(NC(=O)Cc2ccccc2Cl)ccc1-c1cnn(C2CCC2)c1` [Example 280, 2-(2-Chlorophenyl)-N-[4-(1-cyclobutyl-1H-pyrazol-4-yl)-3-sulfamoylphenyl]acetamide] were 101% and 60 nM.
Taken in the same sequence, the figures for `NS(=O)(=O)c1cc(NC(=O)Cc2ccccc2Cl)ccc1-c1cnn(CCN2CCCC2)c1` [Example 281, 2-(2-Chlorophenyl)-N-(4-{1-[2-(pyrrolidin-1-yl)ethyl]-1H-pyrazol-4-yl}-3-sulfamoyl-phenyl)acetamide] were 76% and 481 nM.
Take `N#Cc1cncc(-c2ccc(NC(=O)Cc3ccccc3Cl)cc2S(N)(=O)=O)c1` [Example 282, 2-(2-Chlorophenyl)-N-[4-(5-cyanopyridin-3-yl)-3-sulfamoylphenyl]acetamide]: the Emax was 80% and the IC50 worked out at 56 nM.
In the case of `NS(=O)(=O)c1cc(NC(=O)Cc2ccccc2Cl)ccc1-c1cnn(CC2CCO2)c1` (stereo not shown) [Example 283, 2-(2-Chlorophenyl)-N-(4-{1-[oxetan-2-ylmethyl]-1H-pyrazol-4-yl}-3-sulfamoylphenyl)-acetamide], the Emax came out at 94% and the IC50 came out at 60 nM.
For the molecule `NS(=O)(=O)c1cc(NC(=O)Cc2ccccc2Cl)ccc1-c1cnc(OCC(F)(F)F)nc1` [Example 284, 2-(2-Chlorophenyl)-N-{3-sulfamoyl-4-[2-(2,2,2-trifluoroethoxy)pyrimidin-5-yl]phenyl}-acetamide], the Emax was 94% and the IC50 was 54 nM.
For `COc1ncc(-c2ccc(NC(=O)Cc3ccccc3Cl)cc2S(N)(=O)=O)cn1` [Example 285, 2-(2-Chlorophenyl)-N-[4-(2-methoxypyrimidin-5-yl)-3-sulfamoylphenyl]acetamide], in that order: 97% and 246 nM.
For `CC(C)OCCn1cc(-c2ccc(NC(=O)Cc3ccccc3Cl)cc2S(N)(=O)=O)cn1` [Example 286, 2-(2-Chlorophenyl)-N-(4-{1-[2-(propan-2-yloxy)ethyl]-1H-pyrazol-4-yl}-3-sulfamoylphenyl)acetamide], the Emax was 87% and the IC50 was 6 nM.
Taken in the same sequence, the figures for `CC(C)(O)CCn1cc(-c2ccc(NC(=O)Cc3ccccc3Cl)cc2S(N)(=O)=O)cn1` [Example 287, 2-(2-Chlorophenyl)-N-{4-[1-(3-hydroxy-3-methylbutyl)-1H-pyrazol-4-yl]-3-sulfamoyl-phenyl}acetamide] were 78% and 31 nM.
Taken in the same sequence, the figures for `Cn1nc(-c2ccc(NC(=O)Cc3ccccc3Cl)cc2S(N)(=O)=O)cc1C(C)(C)O` [Example 288, 2-(2-Chlorophenyl)-N-{4-[5-(2-hydroxypropan-2-yl)-1-methyl-1H-pyrazol-3-yl]-3-sulfamoylphenyl}acetamide] were 68% and 275 nM.
For `NS(=O)(=O)c1cc(NC(=O)Cc2ccccc2Cl)ccc1-c1cncc(OC(F)F)c1` [Example 289, 2-(2-Chlorophenyl)-N-{4-[5-(difluoromethoxy)pyridin-3-yl]-3-sulfamoylphenyl}acetamide], in that order: 89% and 6 nM.
For the molecule `COc1cnc(Cl)c(-c2ccc(NC(=O)Cc3ccccc3Cl)cc2S(N)(=O)=O)c1` [Example 290, N-[4-(2-Chloro-5-methoxypyridin-3-yl)-3-sulfamoylphenyl]-2-(2-chlorophenyl)acetamide], the Emax was 81% and the IC50 amounted to 36 nM.
For the molecule `NS(=O)(=O)c1cc(NC(=O)Cc2ccccc2Cl)ccc1-c1cnn(CCO)c1` [Example 291, 2-(2-Chlorophenyl)-N-{4-[1-(2-hydroxyethyl)-1H-pyrazol-4-yl]-3-sulfamoylphenyl}acetamide], the Emax came out at 95% and the IC50 is 100 nM.
Take `CC(C)(C)c1cc(-c2ccc(NC(=O)Cc3ccccc3Cl)cc2S(N)(=O)=O)n[nH]1` [Example 292, N-[4-(5-tert-Butyl-1H-pyrazol-3-yl)-3-sulfamoylphenyl]-2-(2-chlorophenyl)acetamide]: the Emax is 87% and the IC50 came out at 58 nM.
Taken in the same sequence, the figures for `NS(=O)(=O)c1cc(NC(=O)Cc2ccccc2Cl)ccc1-c1cnn(Cc2ccccc2)c1` [Example 293, N-[4-(1-Benzyl-1H-pyrazol-4-yl)-3-sulfamoylphenyl]-2-(2-chlorophenyl)acetamide] were 75% and 76 nM.
For `Cc1cc(-c2ccc(NC(=O)Cc3ccccc3Cl)cc2S(N)(=O)=O)cnn1` [Example 294, 2-(2-Chlorophenyl)-N-[4-(6-methylpyridazin-4-yl)-3-sulfamoylphenyl]acetamide], in that order: 75% and 174 nM.
As for `NS(=O)(=O)c1cc(NC(=O)Cc2ccccc2Cl)ccc1-c1cccc(C(F)(F)F)n1` [Example 295, 2-(2-Chlorophenyl)-N-{3-sulfamoyl-4-[6-(trifluoromethyl)pyridin-2-yl]phenyl}acetamide], the Emax was 9% and the IC50 is above 25000 nM.
For `NS(=O)(=O)c1cc(NC(=O)Cc2ccccc2F)ccc1-c1cnn(C(F)F)c1` [Example 296, N-{4-[1-(Difluoromethyl)-1H-pyrazol-4-yl]-3-sulfamoylphenyl}-2-(2-fluorophenyl)acetamide], in that order: 87% and 136 nM.
For `NS(=O)(=O)c1cc(NC(=O)Cc2ccccc2Cl)cnc1-c1cnn(C(F)F)c1` [Example 297, 2-(2-Chlorophenyl)-N-{6-[1-(difluoromethyl)-1H-pyrazol-4-yl]-5-sulfamoylpyridin-3-yl}acetamide], in that order: 87% and 32 nM.
Turning to `Cc1cc(-c2ccc(NC(=O)Cc3ccccc3Cl)cc2S(N)(=O)=O)cnc1Cl` [Example 298, N-[4-(6-Chloro-5-methylpyridin-3-yl)-3-sulfamoylphenyl]-2-(2-chlorophenyl)acetamide], the Emax stood at 104% and the IC50 came out at 108 nM.
Taken in the same sequence, the figures for `NS(=O)(=O)c1cc(NC(=O)Cc2ccccc2Cl)ccc1-c1cnc(NC2CC2)nc1` [Example 299, 2-(2-Chlorophenyl)-N-{4-[2-(cyclopropylamino)pyrimidin-5-yl]-3-sulfamoylphenyl}acetamide] were 88% and 203 nM.
Consider `NS(=O)(=O)c1cc(NC(=O)Cc2ccccc2Cl)ccc1-c1cnn(C2CCOC2)c1` (stereo not shown) [Example 300, 2-(2-Chlorophenyl)-N-{3-sulfamoyl-4-[1-(tetrahydrofuran-3-yl)-1H-pyrazol-4-yl]phenyl}acetamide], for which the Emax was 100% and the IC50 was 27 nM.
Taken in the same sequence, the figures for `CNc1ncc(-c2ccc(NC(=O)Cc3ccccc3Cl)cc2S(N)(=O)=O)cn1` [Example 301, 2-(2-Chlorophenyl)-N-{4-[2-(methylamino)pyrimidin-5-yl]-3-sulfamoylphenyl}acetamide] were 74% and 10 nM.
Taken in the same sequence, the figures for `Cn1cc(-c2ncc(NC(=O)Cc3ccccc3Cl)cc2S(N)(=O)=O)cn1` [Example 302, 2-(2-Chlorophenyl)-N-[6-(1-methyl-1H-pyrazol-4-yl)-5-sulfamoylpyridin-3-yl]acetamide] were 97% and 56 nM.
Take `NS(=O)(=O)c1cc(NC(=O)Cc2ccccc2Cl)ccc1-c1cnn(CC(F)F)c1` [Example 303, 2-(2-Chlorophenyl)-N-{4-[1-(2,2-difluoroethyl)-1H-pyrazol-4-yl]-3-sulfamoylphenyl}acetamide]: the Emax was determined as 91% and the IC50 was determined as 97 nM.
